# Reference: patent US20030206936A1, “Cosmetic composition and method of treating skin and hair” (Unilever Home & Personal Care USA, Division of Conopco, Inc., priority 2002, published 2003)
# What was measured:
# Format in all cases: cell-based
# [1] = target: T1, PPARα (Homo sapiens, UniProt Q07869); assay: Reporter gene assay (PPARα) in transfected Cos-7 cells; conditions: 10 μM, 24 hours
# T1 construct: expressed in transfected cells; host or cells: Cos-7 cells (ECACC No. 87021302), transient transfection with LipofectAMINE
# T1 sequence (Q07869 1-468): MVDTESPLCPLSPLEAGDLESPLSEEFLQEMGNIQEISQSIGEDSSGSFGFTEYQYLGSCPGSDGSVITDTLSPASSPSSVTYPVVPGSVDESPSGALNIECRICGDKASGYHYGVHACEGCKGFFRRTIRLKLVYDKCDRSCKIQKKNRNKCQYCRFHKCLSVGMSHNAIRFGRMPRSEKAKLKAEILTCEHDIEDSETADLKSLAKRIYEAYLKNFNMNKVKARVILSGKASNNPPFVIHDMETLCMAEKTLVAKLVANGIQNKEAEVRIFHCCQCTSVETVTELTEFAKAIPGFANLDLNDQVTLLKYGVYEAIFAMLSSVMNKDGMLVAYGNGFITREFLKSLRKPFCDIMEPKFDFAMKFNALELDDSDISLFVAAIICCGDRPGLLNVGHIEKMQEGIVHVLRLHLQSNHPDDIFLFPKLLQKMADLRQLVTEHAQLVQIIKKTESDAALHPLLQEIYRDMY
# Method: The following assay protocol is responsive to ligands of PPARα or retinoid X receptor.
# Reporter Gene Assay Protocol
# Cos-7 cells (ECACC No. 87021302) were routinely grown in DMEM with 10% FCS (foetal calf serum) at 37° C., 5% CO2 to 80% confluency. Transient transfections were performed as described by the manufacturers (GibcoBRL). Briefly, cells were plated out in 24 well plates at 50,000 cells per well and incubated overnight in DMEM with 10% FCS at 37° C., 5% CO2,. Cells were then transfected using the LipofectAMINE reagent. For each well, 0.5 μg of DNA mix (for “control” cells pPPRE3TK-luc 0.40 μg; pRL-TK 0.04 μg; pcDNA3.1(−) 0.03 μg; pRSV 0.03 μg; for “plus RXRα” cells pPPRE3TK-luc 0.40 μg; pRL-TK 0.04 μg; pcDNA3.1(−) 0.03 μg; pRSV/RXRα 0.03 μg; for “plus PPARα” cells pPPRE3TK-luc0.40 μg; pRL-TK 0.04 μg pcDNA3.1(−)/PPARα 0.03 μg pRSV 0.03 μg) in 25 μl of DMEM was incubated with 1 μl LipofectAMINE, also in 25 μl of DMEM for 45 minutes.
# The mixture was then made up to 250 μl per well and added to the cells, which had been washed with 1 ml of DMEM. Cells were then incubated for 5 hours at 37° C., 5% CO2, and 250 μl DMEM with 20% SBCS (charcoal stripped bovine calf serum (Sigma)) added. Cells were allowed to recover for 18 hours at 37° C., 5% CO2 before being treated. […]
# [2] = system: decorin; assay: Dot blot assay for decorin synthesis in human dermal fibroblasts; conditions: primary human foreskin fibroblasts, 24 hours, relative to vehicle control; effect similar to retinoic acid
# Method: Procedure For Measuring Procollagen-I and Decorin Synthesis in Human Dermal Fibroblasts
# Preparation of Dermal Fibroblast Conditioned Medium
# Primary human foreskin fibroblasts at passage 2 (P2) were seeded into 12-well plates at 10000 cells/cm^2 and maintained for 24 hours in an atmosphere of 5% carbon dioxide and 4% oxygen in Dulbeccos Modified Eagles Medium (DMEM) supplemented with 10% foetal calf serum. After this time the cells were washed with serum free DMEM and then incubated in fresh serum free DMEM for a further 60 hours. The fibroblast monolayers were then washed again with serum free DMEM. […] This fibroblast conditioned medium was either analyzed immediately or snap frozen in liquid nitrogen and stored at −70° C. for future analysis. The cells were then counted and data from the dot-blot analysis subsequently standardized to cell number. […]
# Following this the Immobilon strips were again washed with TBS/Tween 20 (3×5 minutes) before being allowed to dry in air at room temperature. […] Dot intensity was assessed by computer-assisted image TM analysis using the quantification tools in ImageQuant™, standardized to cell number and the effects of various test reagents on decorin and procollagen-I synthesis were determined relative to a vehicle treated control value of 100 arbitrary units.
# [3] = system: Corynebacterium A NCIMB 40928; assay: In vitro model of fatty acid catabolism by corynebacteria A (TVC, glucose and pentadecanoic acid utilisation); conditions: 24 h
# Method: An in vitro model system, reproducing fatty acid catabolism by corynebacteria A, consisted of 250 ml baffled shake flasks, to which were added 30 ml semi-synthetic medium (see below) supplemented with fatty acid substrate (2.0 mg/ml pentadecanoic acid) and non-fatty acid substrate (0.5 mg/ml glucose). This system was employed to evaluate sargahydroquinoic acid as a potential deodorant active: to each flask (other than the control) was added and specific dose of sargahydroquinoic acid (isolated from Kombo nut oil at >90% purity), from a 25 g/l stock emulsion in semi-synthetic medium supplemented with 5.0 mg/ml Gum Arabic (formed by ultra-homogenisation at 24000 rpm for 1 min) Flasks were inoculated with fresh bacterial biomass (Corynebacterium A NCIMB 40928), pre-grown for 24 h in TSBT (see below), to give starting optical densities (A5 9 0) of ˜1.0. Following inoculation, flasks were incubated aerobically at 35°0 C., with agitation (130 rpm), and analysed at 24 h. Culture viability was determined by total viable count (TVC) analysis on TSAT plates (see below) following serial dilution in quarter-strength Ringers solution. Fatty acid concentrations were determined by capillary gas chromatography (GC) (see below), while residual glucose levels were measured with blood glucose test strips (BM-Test 1-44; Boehringer Mannheim) used in conjunction with a ReflofluxS glucose meter (Boehringer Mannheim). A ‘sub-lethal’ effect is defined as significant inhibition of fatty acid catabolism, typically greater than 50% inhibition of pentadecanoic acid utilization, without concomitant reductions in Corynebacterium A viability (≦1 log10 CFU/ml reduction) or glucose utilization (≦10% reduction). Outside one or both of these defined boundaries, the effect may be described as ‘antimicrobial’, where ‘antimicrobial’ includes both bacteriostatic & bactericidal effects. Composition of Tween-supplemented Tryptone soya broth & agar (TSBT & TSAT) used for growth & maintenance of axillary bacterial (g/l): Tryptone soya broth (30.0); Yeast Extract (Beta Lab) (10.0); Tween 80™ (1.0); ± Agar (20.0). Composition of semi-synthetic medium used in in vitro system simulating fatty acid catabolism by corynebacteria A (g/l): KH2PO, (1.6);(NH4) 2HPO4(5.0); Na2SO4 (0.38); Yeast Nitrogen Base (Difco)(3.35); Yeast Extract (Beta Lab)(0.5); Tween 80™ (0.2); Triton X-100™ (0.2); MgCl2.6H20(0.5). Fatty acid levels in the flasks were determined by capillary GC analysis. Initially, 5.0 ml aliquots from each flask were transferred into universal tubes; an internal standard (lauric acid, 1.0 mg/ml final concentration) was added to each tube and the culture medium acidified (pH ˜2) by the addition of hydrochloric acid. Liquid-liquid extraction was then carried out using 2 vol (10 ml) ethyl acetate; organic and aqueous phases were resolved by centrifugation (2000 rpm, 3 min). ˜0.75 ml of each organic (upper) phase was then transferred to a sampling vial prior to analysis on a Perkin Elmer 8000 (Series 2) GC fitted with a 15 m ×0.32 mm (internal diameter) FFAP (nitroterephalic acid modified PEG/siloxane copolymer) fused silica capillary column (film thickness […]) (Quadrex). This column was attached to the split-splitless injector and flame ionisation detector (FID) of the GC; injector and detector temperatures were each 300° C. Carrier gas for the column was helium (6 psi), while hydrogen (17 psi) and air (23 psi) supplied the FID. The temperature programme for fatty acid analysis was 80° C.(2 min); 80-250° C. (20° C./min); 250° C. (5 min). Sample size for injection was 0.5-1.0 μl . Fatty acid levels in the flasks were quantified by comparison of peak areas with known levels of both internal (lauric acid) and externally-run (pentadecanoic acid) standards.
smiles,measurement,setting,value
CC(C)=CCC/C(=C/CC/C(C)=C/CC/C(C)=C/Cc1cc(O)cc(C)c1O)C(=O)O [Sargahydroquinoic acid],PPARα ligand activity in reporter gene assay (FIG. 2),[1],is a ligand for PPARα
same,effect on decorin production (FIG. 1),[2],enhances decorin production
same,Glucose Utilisation,[3]; 0.05 g/l,100%
same,Pentadecanoic Acid Utilisation,[3]; 0.05 g/l,99%
same,TVC,[3]; 0.05 g/l,8.67 log10 CFU/ml
same,Glucose Utilisation,"[3]; 0.1 g/l, * sub-lethal",100* %
same,Pentadecanoic Acid Utilisation,"[3]; 0.1 g/l, * sub-lethal",58* %
same,TVC,"[3]; 0.1 g/l, * sub-lethal",8.83* log10 CFU/ml
same,Glucose Utilisation,"[3]; 0.25 g/l, * sub-lethal",>90* %
same,Pentadecanoic Acid Utilisation,"[3]; 0.25 g/l, * sub-lethal",15* %
same,TVC,"[3]; 0.25 g/l, * sub-lethal",7.93* log10 CFU/ml
same,Glucose Utilisation,"[3]; 0.5 g/l, * sub-lethal",100* %
same,Pentadecanoic Acid Utilisation,"[3]; 0.5 g/l, * sub-lethal",19* %
same,TVC,"[3]; 0.5 g/l, * sub-lethal",7.85* log10 CFU/ml
same,Glucose Utilisation,"[3]; 1.0 g/l, antimicrobial effect",>90%
same,Pentadecanoic Acid Utilisation,"[3]; 1.0 g/l, antimicrobial effect",5%
same,TVC,"[3]; 1.0 g/l, antimicrobial effect",7.3 log10 CFU/ml
same,Glucose Utilisation,"[3]; 2.5 g/l, antimicrobial effect",7%
same,Pentadecanoic Acid Utilisation,"[3]; 2.5 g/l, antimicrobial effect",25%
same,TVC,"[3]; 2.5 g/l, antimicrobial effect",<3.0 log10 CFU/ml
same,inhibition at 50 µg/mL,"[3]; Corynebacterium, NCIMB40928, 0.05 g/l, in parentheses = not significant",1%
same,inhibition at 100 µg/mL,"[3]; Corynebacterium, NCIMB40928, 0.1 g/l, * sub-lethal",42%
same,inhibition at 250 µg/mL,"[3]; Corynebacterium, NCIMB40928, 0.25 g/l, * sub-lethal",85%
same,inhibition at 500 µg/mL,"[3]; Corynebacterium, NCIMB40928, 0.5 g/l, * sub-lethal",81%
same,inhibition at 1000 µg/mL,"[3]; Corynebacterium, NCIMB40928, 1.0 g/l, antimicrobial effect",95%
same,inhibition at 2500 µg/mL,"[3]; Corynebacterium, NCIMB40928, 2.5 g/l, antimicrobial effect",75%
